What was measured:
Mouse 11β-HSD1 = Mouse 11β-HSD1 (Mus musculus, UniProt P50172); assay: Evaluation of compound against mouse 11β-HSD1 (HTRF corticosterone assay); format: biochemical; details: substrate 11-dehydrocorticosterone 2 μM, 37° C. for 2 hours, HTRF method
Experimental: (§1) After preincubating an inhibitor in a reaction solution consisting of 50 mM sodium phosphate buffer (pH 7.6), bovine serum albumin (1 mg/mL), NADPH (0.42 mg/mL), glucose-6-phosphate (1.26 mg/mL), glucose-6-phosphate dehydrogenase, and an enzyme at room temperature for 30 minutes, 11-dehydrocorticosterone (2 μM) which is a substrate was added (total amount 10 μL). After reacting at 37° C. for 2 hours, an XL-665-labeled cortisol solution (5 μL), and a Cryptate-labeled anti-cortisol antibody solution (5 μL) were added, a reaction was performed at room temperature for 2 hours, and fluorescence intensity (HTRF method) was measured.
A corticosterone concentration was measured from a standard curve prepared using a known concentration of corticosterone for each assay.
Taking a concentration of corticosterone generated in the absence of the inhibitor as a control value, 50% inhibition concentration (IC50 value) of the inhibitor against 11β-HSD1 was calculated from an inhibition curve plotting inhibition rate against the control value at each concentration of the inhibitor.

Human 11β-HSD1 = Human 11β-HSD1 (Homo sapiens, UniProt P28845); assay: Evaluation of compound against human 11β-HSD1 (HTRF cortisol assay); format: biochemical; details: substrate cortisone 5 μM, 37° C. for 2 hours, HTRF method
Experimental: as §1, with “dehydrogenase” for “dehydrogenase,”, “cortisone (5” for “11-dehydrocorticosterone (2”, “measured. A cortisol concentration was measured from a standard curve prepared using a known concentration of cortisol for each assay.” for “measured.”
Taking a concentration of cortisol generated in the absence of the inhibitor as a control value, 50% inhibition concentration (IC50 value) of the inhibitor against 11β-HSD1 was calculated from an inhibition curve plotting inhibition rate against the control value at each concentration of an inhibitor.

Sequence of Human 11β-HSD1 (P28845 whole entry): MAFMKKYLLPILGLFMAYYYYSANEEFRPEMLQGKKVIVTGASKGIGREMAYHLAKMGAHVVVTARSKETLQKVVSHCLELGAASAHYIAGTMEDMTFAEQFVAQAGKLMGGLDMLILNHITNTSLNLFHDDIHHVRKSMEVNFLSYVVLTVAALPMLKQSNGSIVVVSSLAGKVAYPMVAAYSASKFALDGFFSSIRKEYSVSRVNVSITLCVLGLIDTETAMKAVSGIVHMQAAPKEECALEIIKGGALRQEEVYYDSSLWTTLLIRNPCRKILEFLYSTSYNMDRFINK
Sequence of Mouse 11β-HSD1 (P50172 whole entry): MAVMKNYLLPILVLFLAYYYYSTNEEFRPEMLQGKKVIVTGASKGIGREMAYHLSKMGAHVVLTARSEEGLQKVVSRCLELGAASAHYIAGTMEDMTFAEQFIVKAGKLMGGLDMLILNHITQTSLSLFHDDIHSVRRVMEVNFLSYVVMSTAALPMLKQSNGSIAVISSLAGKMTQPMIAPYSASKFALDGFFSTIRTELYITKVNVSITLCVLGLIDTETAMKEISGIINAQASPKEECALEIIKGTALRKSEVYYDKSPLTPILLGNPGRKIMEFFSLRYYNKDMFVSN

IC50 (Mouse 11β-HSD1): 8.4 µM | IC50 (Human 11β-HSD1): 0.43 µM
SMILES: CCN(C[C@@H]1CN(C2CCCCCCC2)C(=O)O1)S(=O)(=O)c1ccccc1 [Compound I-21]
